≈ marks a conversion by molar mass, not a printed value. Entries after “also recorded” stand apart in the source; their conditions may differ.
Legend:
[1] = tested on: thrombocyte aggregation; test: Thrombocyte (blood platelet) aggregation, Payton aggregometer, induced with 2 μM ADP, plasma enriched in thrombocytes (PRP); type: cell-based, human; conditions: for antiaggregatory activity (in words): compared with PGI2 or compounds of the state of art
Procedure: The thrombocyte aggregation was measured with a Payton type aggregometer of two channels in 0.5 ml. end volume. […] The cubital venal blood was mixed with a 3.8% Na-citrate solution at a ratio of 9:1 and in order to obtain a plasma enriched in thrombocytes (PRP) blood was centrifuged for 5 minutes at 230 g, while plasma poor in thrombocytes was obtained after 10 minutes of centrifuging. The blood platelet number of the plasma was adjusted to […]. The tests were performed within 1 hour after the blood taking. The prostacycline sensitivity of each plasma was controlled before measuring the test substances. IC50 value of prostacycline on plasma enriched in thrombocytes: 0.6-1.0 ng/ml.
Thrombocyte aggregation was induced with 2 μM ADP. The test compounds were dissolved in 0.1M tris-HCl buffer of pH=7.8 and the temperature was maintained at 0° to 4° C.
The compounds were tested repeatedly after some time and were kept in solution at 0°-4° C. IC50 values were calculated graphically.

[2] = tested on: blood pressure; test: Antihypertensive activity (blood pressure reduction, ED25) on narcotized rats; type: in vivo, rat; conditions: for hypotensive / antihypertensive side effect (in words): compared with PGI2 or compounds of the state of art; for relative anti-hypertensive efficiency ED25 PGI2 /ED25 test-compound: molar dose for 25 mmHg blood pressure reduction, narcotized rats, sodium salts
Procedure: The antihypertensive activity was determined on narcotized rats. From the data of the blood pressure tests the molar dose /ED25 / inducing 25 mmHg /3.33 kPa/ blood pressure reduction was calculated.

[3] = tested on: coronary arteries of the heart; peripheral circulation vessels; conditions: literature; cited from earlier work
[4] = tested on: thrombocyte aggregation; conditions: literature; cited from earlier work

SMILES	antiaggregatory activity (in words) [1]	hypotensive / antihypertensive side effect (in words) [2]	relative anti-hypertensive efficiency ED25 PGI2 /ED25 test-compound ([2]; related to PGI2)	further results
CCCCCCCC(O)C#CC1C(O)CC2OC(=Cc3cccc(C(=O)O)c3)CC21 (centres unmarked) [compound "B", 5(Z)-2,3,4-trinor-inter-m-phenylene-13,14-didehydro-20-ethyl-PGI2]	better activity; also recorded: substantially the same as that of PGI2	less side effects		antihypertensive activity as part of the activity of PGI2 ([2]; related to PGI2): about 2/100
CCCCC[C@H](O)/C=C/[C@@H]1[C@H]2C/C(=C/CCCC(=O)O)O[C@H]2C[C@H]1O [PGI2]			1/1	IC50 ([1]; Homo sapiens, Platelet, control of prostacycline sensitivity of each plasma): 0.6 to 1 ng/mL (≈ 1.7 to 2.84 nM); relative anti-aggregatory efficiency IC50 PGI2 /IC50 test-compound ([1]; related to PGI2, 2 μM ADP, human PRP, sodium salts): 1/1; further physiological activities (in words) [3]: relaxation of the coronary arteries of the heart and dilatation of the peripheral circulation vessels; antiaggregatory and desaggregatory activity (in words) [4]: most active antiaggregatory and desaggregatory agent
CCCCCC(O)C=CC1C(O)CC2OC(=Cc3cccc(C(=O)O)c3)CC21 (centres unmarked) [45842/A, 5(Z)-2,3,4-trinor-1,5-inter-m-phenylene-PGI2]			1/10	
CCCCCCC(O)C#CC1C(O)CC2OC(=Cc3cccc(C(=O)O)c3)CC21 (centres unmarked) [compound "A", 5(Z)-2,3,4-trinor-1,5-inter-m-phenylene-13,14-didehydro-20-methyl-PGI2]	better activity	less side effects		

Reference: US4479945A, “Inter-m-phenylene-prostacyclin analogues and use thereof in inhibiting blood platelet aggregation” (Chinoin Gyogyszer Es Vegyeszeti Termekek Gyara R.T., priority 1981, dated 1984)
